Results: the supplement of paper PMC4932681

Columns and labels:
Experiment in all cases: viability inhibition at highest dose (% inhibition); higher = more growth inhibition
BT-474 Tam1 = conditions: 4-OH-tamoxifen in medium 1 µM; 72 h
Experimental: (§1)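 Percent inhibition of viability (CellTiter-Glo, 72 h) at the highest tested concentration (D5), normalised to DMSO (0%) and 100 µM benzethonium chloride (100%). Resistant lines and the 'in 1µM tamoxifen' arms were tested in 1 µM 4-OH-tamoxifen.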

BT-474 Tam2 = conditions: 4-OH-tamoxifen in medium 1 µM; 72 h
Experimental: as §1

BT-474 = conditions: 72 h
Experimental: as §1

MCF-7 Tam1 = conditions: 4-OH-tamoxifen in medium 1 µM; 72 h
Experimental: as §1

MCF-7 = conditions: 72 h
Experimental: as §1

T-47D Tam1 = conditions: 4-OH-tamoxifen in medium 1 µM; 72 h
Experimental: as §1

T-47D Tam2 = conditions: 4-OH-tamoxifen in medium 1 µM; 72 h
Experimental: as §1

T-47D = conditions: 72 h
Experimental: as §1

ZR-75-1 Tam1 = conditions: 4-OH-tamoxifen in medium 1 µM; 72 h
Experimental: as §1

ZR-75-1 Tam2 = conditions: 4-OH-tamoxifen in medium 1 µM; 72 h
Experimental: as §1

ZR-75-1 = conditions: 72 h
Experimental: as §1

Row | SMILES | viability inhibition at highest dose (BT-474 Tam1) | viability inhibition at highest dose (BT-474 Tam2) | viability inhibition at highest dose (BT-474; 4-OH-tamoxifen in medium 0 µM) | viability inhibition at highest dose (BT-474; 4-OH-tamoxifen in medium 1 µM) | viability inhibition at highest dose (MCF-7 Tam1) | viability inhibition at highest dose (MCF-7; 4-OH-tamoxifen in medium 0 µM) | viability inhibition at highest dose (MCF-7; 4-OH-tamoxifen in medium 1 µM) | viability inhibition at highest dose (T-47D Tam1) | viability inhibition at highest dose (T-47D Tam2) | viability inhibition at highest dose (T-47D; 4-OH-tamoxifen in medium 0 µM) | viability inhibition at highest dose (T-47D; 4-OH-tamoxifen in medium 1 µM) | viability inhibition at highest dose (ZR-75-1 Tam1) | viability inhibition at highest dose (ZR-75-1 Tam2) | viability inhibition at highest dose (ZR-75-1; 4-OH-tamoxifen in medium 0 µM) | viability inhibition at highest dose (ZR-75-1; 4-OH-tamoxifen in medium 1 µM)
1 | O=C(/C=C/c1cccc(S(=O)(=O)Nc2ccccc2)c1)NO [Belinostat  (PXD101)] (drug 10000 nM) | 89 | 77.2 | 91.3 | 97.1 | 22.8 | 89.5 | 86.8 | 92 | 70.4 | 95.6 | 94.8 | 39.5 | 51.5 | 38.9 | 38.7
2 | Cn1cc(C2=C(c3cn(C4CCN(Cc5ccccn5)CC4)c4ccccc34)C(=O)NC2=O)c2ccccc21 [Enzastaurin] (drug 10000 nM) | -11.4 | -1.15 | -3.38 | -20.9 | -11.6 | -11 | -13.8 | -9.95 | -0.917 | -15.8 | -13.2 | 1.19 | -0.91 | -10.7 | -19.1
3 | CCCCC/C=C/C=C1/C(=O)C=C[C@@H]1C/C=C\CCCC(=O)O [15D-PGJ2] (drug 800 nM) | -6.35 | -6.87 | -7.22 | -14.5 | -5.28 | -3.98 | -2.34 | 0.0444 | 19.6 | -18.6 | -6.02 | -1.15 | -2.77 | -12.7 | 5.41
4 | CC(C)Cn1cnc2c(N)nc3ccccc3c21 [Imiquimod] (drug 10000 nM) | 8.22 | 11.8 | 9.75 | 18.4 | 5.29 | -14.1 | 15.9 | 8.8 | 15.3 | 16.1 | 10.4 | -4.93 | -8.03 | 0.432 | 2.78
5 | C[C@H]1C[C@@H]2[C@H]([C@@H](O)C[C@@]3(C)[C@H]2CC[C@]3(O)C(=O)CO)[C@@]2(C)C=CC(=O)C=C12 [Methylprednisolone] (drug 10000 nM) | -9.86 | -2.3 | -7.44 | -20.6 | -0.753 | -1.81 | 18.4 | -1.09 | 8.67 | -19.3 | -15.1 | 6.19 | 0.244 | -6.28 | -4.27
6 | Nc1ccn([C@@H]2O[C@H](CO)[C@@H](O)C2(F)F)c(=O)n1 [Gemcitabine] (drug 1000 nM) | 1.24 | -10.3 | -11.7 | -4.83 | -2.89 | 25.8 | 4.61 | 25.9 | 21.5 | 32.3 | 7.44 | 9.23 | 11.2 | 16.9 | 19.4
7 | CCNC(=O)CCC/C=C\C[C@@H]1[C@@H](/C=C/[C@@H](O)CCc2ccccc2)[C@H](O)C[C@@H]1O [Bimatoprost] (drug 5500 nM) | -14.6 | -16.2 | -10.2 | -22.1 | -5.08 | 10.1 | -1.71 | -9.33 | -4.37 | -18.2 | -17.9 | -5.04 | -15.8 | -13.7 | -4.04
